The target of assay [1] is Pin1 (Homo sapiens, UniProt Q13526, M130I). Description: PPIase assay (Supplementary Fig. 2e). It is filed as biochemical.
Assay [2] addresses T1, Pin1 (Homo sapiens, UniProt Q13526).
T1 construct: recombinant Pin1
The experiment in a line: biotin-ATO pulldown with immunoblot, dose-dependent, competed by ATO. The assay is classed as binding. (In general: A western blot detects proteins with antibodies after separation by electrophoresis.)

`O=[As]O[As]=O` (centres unmarked) [ATO, Arsenic trioxide]: the “PPIase assay (Supplementary Fig. 2e)” value at Pin1 [1] is listed as “ATO dose-dependently inhibited the PPIase activity of Pin1 M130I, but not Pin1 M130V mutant”. By Kd is commonly meant a measure of binding affinity in units of concentration. In turn, biotin-ATO yielded a Kd on Pin1 [2] of 238 nM.
